Legend:
ShhRE [1] = experiment: EMSA of Shh-induced protein binding to radiolabeled ShhRE, P19 nuclear extracts; assay type: cell-based, mouse; conditions: 1.0 nM Shh-N, 24 hours
Experimental: Methods described in Example 6 were used in addition to the following protocols. P19 cells were treated with or without Shh-N for 24 hours and nuclear extracts were obtained and used in an electrophoretic mobility shift assay (EMSA) with radiolabeled ShhRE. The following oligos were used as competitors or probes in these assays; WT ShhRE—GTTCTACATAATGCGCCG—SEQ ID NO:1; mShhRE—GTTCTACgTgATGCGCCG—SEQ ID NO:3; GliRE—[…]—. SEQ ID NO:4, Different amounts of unlabeled Gli response element (GliRE) (FIG. 5C, lane 3, 100X; lane 4, 50X; lane 5, 25X; and lane 6, 10X) or ShhRE (lane 7; 100X, lane 8; 50X and lane 9; 10X) was used as a competitor at the indicated molar excess.
In EMSA, radiolabeled probe was incubated with the nuclear extracts (10 μg) along with 4 μg poly dG-dC in a binding reaction containing 10 mM Tris pH 7.5, 50 mM NaCl, 1 mM EDTA, 1 mM DTT, 0.1 mg/ml BSA, and 5% glycerol. Later the mixture was loaded onto a 5% polyacrylamide gel and the retarded complexes were separated-in 1× TBE buffer and analyzed using autoradiography.
(§1) P-19 cells were treated with phosphatase inhibitors to study the endogenous levels of COUP-TFII mRNA. […] Total RVA was isolated from these cells and 20 μg of RNA was used in a RNase protection assay as described above in Example 6. A region of the murine Cyclophilin A cDNA was used to generate riboprobe and was used as an internal control. P19 cells were co-treated with (FIG. 7C, lane 2, 4, 6, and 7) or without (FIG. 7C, lane 1, 3, and 5) 1.0 nM Shh-N and 5 nM OA (lane 3 and 4), 0.5 nM CyA (FIG. 7C, lane 5 & 6) or 5 nm NoA (FIG. 7C, lane 9). Cells were harvested after 24 hours of treatment and the nuclear extract was obtained for the binding reactions. Extracts were subjected to an EMSA as described earlier.

COUP-TFII mRNA = COUP-TFII mRNA in P19 cells, RNase protection assay; assay type: cell-based, mouse; conditions: for Shh-induced COUP-TFII mRNA: with 1.0 nM Shh-N
Experimental: The P19 mouse embryo carcinoma cell line which was earlier shown to contain increased levels of COUP-TF transcripts after retinoid treatment was utilized. Jonk, L. J. C., et al., Mechan. of Dev. (1994) 47:81-97). Conditioned media obtained from COS-1 cells transfected with mouse Shh-N cDNA expression plasmid or purified E. coli expressed recombinant Shh-N was used.
Briefly, a total of 20 μg RNA was hybridized to a 450 (FIG. 5A) or 120 (FIG. 7B) nucleotide riboprobe that corresponds to the 5′ untranslated region (UTR) of the COUP-TFII gene along with a 670 (FIG. 5A) or 102 (FIG. 7B) nucleotide riboprobe of the murine Cyclophilin A coding region. The RPA II™ kit from Ambion was used to perform the RNase protection assay. The products were subjected to RNase digestion and analyzed on a 6% urea polyacrylamide gel.
as §1

phosphatase 1 (PP1) = conditions: read-out: IC50, phosphatase 1 (PP1) inhibition; cited from earlier work
Ci = Ci induction in cl-8 cells with or without HH-N conditioned medium, Western blot; assay type: cell-based, Drosophila; conditions: up to 100 nM, 4 hours, presence of HH or not
Experimental: cl-8 cells were cultured as described in Van Leeuwen, F., et al. Nature, 368:342-344, 1994. Culture and transfection of S2 cells were performed as described in Porter, J. A. et al. Cell, 86: 21-34, 1996. The conditioned medium was made by culturing transfected S2 cells in cl-8 medium, and induced by adding CUSO4, to the final concentration of 0.5 Mm overnight. The conditioned medium was harvested the next day, centrifuged to remove S2 cells and the supernatant was used. To make lysate from cl-8 cells, cl-8 cells were washed, harvested in cold phosphate buffered saline (PBS), and then resuspended in NP-40 lysis buffer (150 Mm NaCl, 50 Mm Tris pH8, 1% NP-40, 1 Mm EDTA, 20 μg/ml aprotinin, 20 μg/ml leupeptin, 1 μg/ml pepstatin A, 2.5 μg/ml antipain, 100 μM PMSF, 50 mM NaF, 5 mM Na2P4O7). Cells were lysed at 4° C. for 10 minutes, then centrifuged at 13,000×g for 10 minutes. The supernatant was saved for Western blot analysis.
SDS-PAGE and protein transfer were carried out by standard methods. The primary antibodies used were: rat monoclonal anti-Ci 2Al 1:20 dilution; mouse monoclonal anti-Ptc 1:1000 dilution; mouse monoclonal anti-actin 1:2500. Secondary antibodies were from Jackson Immunologicals. The filters were developed using SuperSignal from Pierce.
Tautomycin (TAU) and okadaic acid (OA) were purchased from Calbiochem and dissolved in dimethyl sulfoxide (DMSO) to different concentrations. The phosphatase inhibitors were mixed with conditioned medium and the concentration of DMSO was adjusted to 0.2% for each sample. cl-8 cells were incubated with conditioned medium and phosphatase inhibitor mixture for 4 hours and lysed for analysis.

ShhRE [2] = experiment: ShhRE-tkCAT reporter mRNA and enzyme activity in P19 cells with cycloheximide; assay type: cell-based, mouse; conditions: 50 μM for 14 hours
Experimental: Methods described in Example 6 were used in addition to the following protocols. P19 cells were co-transfected with either three copies of the ShhRE or mutant ShhRE (mShhRE) element placed upstream of the tk-CAT along with tk-LUC plasmid as an internal control. Cells were treated with 1.0 nM Shh-N (12 hours) and with or without 50 μM cycloheximide (Chx) for 14 hours and harvested to obtain total RNA. Sixty μg of total RNA from these cells were used in an RNase protection assay. RNase protection assays were performed as described in Example 6. Specific riboprobes were generated to analyze the relative levels of the CAT and LUC mRNA levels. A 255 bp region of the CAT coding sequence or 123 bp of the luciferase coding region was used to generate an antisense riboprobe and was hybridized with 60 μg of total RNA, obtained from transfected P19 cells. The amount (50 μM) and extent (14 hours) of cycloheximide treatment was based on inhibition of protein synthesis as indicated by a significant loss in reporter enzyme activity.

lambda phosphatase = molecular target: T1, lambda phosphatase (Escherichia phage lambda, UniProt P03772); experiment: Lambda phosphatase treatment of immunoprecipitated Ci, mobility shift; assay type: biochemical; conditions: 1 mM sodium orthovanadate, 30° C. for 1 hour
T1 sequence (P03772 1-221): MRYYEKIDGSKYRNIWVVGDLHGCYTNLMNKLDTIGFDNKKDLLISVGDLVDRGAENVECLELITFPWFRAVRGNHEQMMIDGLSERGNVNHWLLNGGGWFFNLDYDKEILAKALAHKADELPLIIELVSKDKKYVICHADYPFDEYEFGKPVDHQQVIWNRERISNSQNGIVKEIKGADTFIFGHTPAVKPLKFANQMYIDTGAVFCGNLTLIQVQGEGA
Experimental: cl-8 cells were incubated in conditioned medium for 4 hours and lysed on ice for 20 minutes in 1 ml of NP-40 lysis buffer per T75 flask. The lysate was incubated with 100 μl of anti-Ci 2A1 or 0.3 μl of normal rat serum at 4° C. for 2 hours. 50 μl of 50% Protein G beads were added and incubated for 1 hour. The beads were collected and washed in NP-40 lysis buffer, then in lambda phosphatase buffer (50 mM Tris pH 7.8, 5 mM dithiothritol, 20 mM MnCl2, […] bovine serum albumin, 20 μg/ml aprotinin, 20 μg/ml leupeptin, 1 μg/ml pepstatin A, 2.5 μg/ml antipain, 100 μM PMSF). The beads were resuspended in 50 μl of lambda phosphatase buffer, plus 1 mM of sodium orthovanadate or 1.5 μl (30 unit) of lambda phosphatase according to the procedure. Each sample was incubated at 30° C. for 1 hour, then washed in NP-40 lysis buffer, and was boiled in SDS sample buffer for analysis.

[3] = test system: PP1 and PP2A enzyme activity; experiment: Protein phosphatase assay on nuclear extracts of control and Shh treated P19 cells; assay type: biochemical, mouse
Experimental: P19 cells were treated with or without 1 nM Shh for 36 hours and nuclear extracts from these cells were obtained as described earlier. A protein phosphatase assay system™ (Life Technologies, Bethesda) was used to quantitate the phosphatase activity present in the control and induced extracts. P19 cells were treated with or without 1 nM Shh for 36 hours and nuclear extracts from these cells were obtained and incubated with 2 nM OA or 4 nM Inh-2 protein for 15 minutes at 30° C. Results are expressed as mean±sd from three separate experiments.

COC[C@@H]([C@H](O)[C@H](O)C(=O)NCC[C@H](C)c1nc(/C=C/C[C@@H]2O[C@]3(C[C@@H](O)[C@@H]2C)O[C@H]([C@H](C[C@H](O)[C@H](C)[C@H](O)[C@H](C)/C=C(C)/C(C)=C/C=C/C(C)=C\C#N)OC)[C@H](OP(=O)(O)O)C3(C)C)co1)N(C)C [CyA, calyculin A]
Shh-induced binding to radiolabeled ShhRE (ShhRE [1]; 0.5 nM): abolished | Shh-induced COUP-TFII mRNA (COUP-TFII mRNA; 0.5 nM for 12 hours): complete inhibition

CO[C@H]([C@H](O)CC(=O)[C@@H](C)[C@@H](O)CC[C@@H](C)[C@@H]1O[C@]2(CC[C@@H](C)[C@H](CC[C@H](C)C(C)=O)O2)CC[C@@H]1C)[C@H](OC(=O)C[C@@H](O)C1=C(C)C(=O)OC1=O)C(C)C [TAU, Tautomycin]
IC50 (phosphatase 1 (PP1)): 10 nM | effect on Ci (Ci): did not to have any effect

C[C@@H]1C[C@@H]([C@H](O)CC2CC(=O)NC(=O)C2)C(=O)[C@@H](C)C1 [cycloheximide]
CAT and luciferase activities (ShhRE [2]): inhibited | Shh-induced increase in CAT mRNA (ShhRE [2]; 1 nM Shh-N): not altered

[Na+].[Na+].[Na+].[O]=[V]([O-])([O-])[O-] [sodium orthovanadate]
effect of lambda phosphatase on Ci mobility (lambda phosphatase): reversed

Nor-Okadone [NoA]
Shh-induced binding to radiolabeled ShhRE (ShhRE [1]; 5 nM): unable to inhibit | Shh-induced COUP-TFII mRNA (COUP-TFII mRNA; 5 nM for 12 hours): incapable of inhibiting

Shh-N: purified E. coli expressed recombinant amino-terminal fragment of mouse Sonic hedgehog
net increase in phosphatase activity after Shh treatment ([3]; 1 nM Shh, 36 hours, P19 nuclear extracts): 2 fold | concentration at which a significant increase in COUP-TFII mRNA was observed (COUP-TFII mRNA; P19 cells, 24 hours, densitometric analysis): ≤ 0.2 nM

B1: Inhibitor-2: Inh-2 protein, a specific inhibitor of PP1 (protein, UniProt P41236 2-205, looked up)
Protein phosphatase inhibitor …: AASTASHRPIKGILKNKTSTTSSMVASAEQPRGNVDEELSKKSQKWDEMNILATYHPADKDYGLMKIDEPSTPYHSMMGDDEDACSDTEATEAMAPDILARKLAAAEGLEPKYRIQEQESSGEEDSDLSPEEREKKRQFEMKRKLHYNEGLNIKLARQLISKDLHDDDEDEEMLETADGESMNTEESNQGSTPSDQQQNKLRSS
Shh-induced phosphatase activity ([3]; 4 nM Inh-2 protein, 15 minutes at 30° C.): unable to inhibit

Source: patent US6733971B2, “Method for identifying an agent that affects a hedgehog signaling pathway” (priority 1998, dated 2004)
